Tests used:
[1] = Surface pressure change after peptide injection without lipid monolayer; assay type: physicochemical; conditions: peptide 0.2 µM injected into pure subphase, Hepes buffer pH 7.4, 22.5°C; defined as threshold for significant variation
Procedure: A number of control experiments were carried out in order to characterize the peptide-lipid monolayer interactions at the air-buffer interface. First, we determined surface pressure-time isotherms of Bax-α5S, a strongly amphipathic and hydrophobic peptide (Table 1), in presence or absence of lipids (POPC/DOPE/CL, see Figure 2). When the peptide was injected into a pure subphase without any lipid monolayer, the corresponding surface pressure change was Δπ = 4.8 mN/m (this value was subsequently defined as a threshold level for significant surface pressure variation). When the same injection was repeated but this time using a lipid monolayer over the aqueous subphase, at an initial surface pressure of 5 mN/m, the surface pressure rose up to Δπ = 32.1 mN/m (Figure 2). […] Then, we measured compression–decompression–recompression isotherms in presence of the peptide. […] After stabilization, the peptide was injected underneath the monolayer, πmax was recorded (32.1 mN/m) and the monolayer was decompressed.
Figure 2 Surface pressure-time isotherms for BAX-α5S with (bold line) or without (light line) POPC/DOPE/CL lipids. […] The initial velocity of surface pressure increase (Vi) was calculated as the slope of the curve (Δπ/Δt) at the time of peptide addition. […]

[2] = tested on: mitochondria isolated from HEK293T cells; assay: Cytochrome c release assay; assay type: biochemical; conditions: 10 µM peptide, 5 min incubation, 30°C, Western blot of supernatant and pellet
Procedure: Thus, we tested the ability of the different peptides to induce the release of mitochondrial proteins by incubating them with mitochondria isolated from HEK293T cells, and subsequently assaying the supernatant and pelleted fractions with antibodies for cytochrome c and mitoHSP70. […] On the other hand, incubation of mitochondria with 10 µM BID-α6 induced a slower release, with depletion of the mitochondrial pool of cytochrome c occurring only after 1 hour incubation.
Figure 7 Cytochrome c release assays. Peptides were incubated with isolated mitochondria for the indicated times (min) and the release of cytochrome c was monitored by Western blotting (IB). MitoHSP70 was used as an equal-loading control for the pellet fraction. Control lanes indicate that in the preparation the MOM is intact and cytochrome c is retained within the intermembrane space. A. Cytochrome c release assays for the first (BAX-α5S, BCLX-α5S, BID-α6) and second helices (BAX-α6, BCLX-α6, BID-α7) of the ‘pore domain’ of BAX, BCL-xL and BID using mitochondria isolated from HEK293T cells. B. Cytochrome c release assays for BAX-α5M and BAX-α5MS using mitochondria isolated from MEF and MEK BAX/BAK -/- double knock-out cells (MEF DKO). C. Cytochrome c release assays for the BH3 peptides.
Crude mitochondria were prepared from HEK 293T, mouse embryo fibroblast (MEF) or BAX/BAK double knockout MEF cells (MEF-DKO). In brief, cells were mechanically broken using a 2 ml glass/glass Dounce homogenizer (Kontes) (30 strokes). Homogenates were cleared at 1500 g and mitochondria were spun down at 10 000 g. For cytochrome c release assays, 30 µg of crude mitochondria were resuspended at 1 mg/ml in KCl buffer supplemented with succinate (5 mM) and EGTA (0.5 mM). Peptides (2.5, 10 or 25 µM) were added to the samples and incubations were carried out at 30°C under agitation (300 rpm). At the indicated time points, samples were centrifuged (5 min, 10 000 g, 4°C); supernatants and pellets were recovered and analyzed by immunoblotting for Cytochrome c and mitoHsp70.

For “WGRVVALFYFASKLVLKALSTK [BAX-α5S, short peptide of the first helix (α5) of the central hairpin of BAX]”, the “surface pressure change (Δπ) without lipid monolayer” value [1] was 4.8 mN/m and the “cytochrome c release, in words” value [2] was “complete depletion of all mitochondrial cytochrome c”.

From PMC2816717, “Active Fragments from Pro- and Antiapoptotic BCL-2 Proteins Have Distinct Membrane Behavior Reflecting Their Functional Divergence” (PLoS ONE, 2010)
